Measurements taken from PMC3005981 (Basic & clinical pharmacology & toxicology, 2010).

Assays:
CYP2C8 = assay: Methadone metabolism in cDNA-expressed CYP Supersomes, with abundance scaling
CYP2A6 = assay: as above
CYP2B6 = assay: as above
CYP2C9*1 = assay: as above
[1] = system: CYP3A (testosterone 6β-hydroxylation); assay: Correlation of EDDP formation with CYP-specific activity in 15 phenotyped HLMs; settings: 15 HLMs; 750 ng/ml methadone, 0.5 mg/ml protein, 30 min; p<0.05
CYP2D6*1 = assay: Methadone metabolism in cDNA-expressed CYP Supersomes, with abundance scaling
CYP2C19 = assay: as above
CYP3A4 [2] = assay: as above
CYP2C18 = assay: as above; settings: Abundance from Immunquantitation
CYP1A2 = assay: as above
[3] = most incubates; limit of detection approximately 1.0 ng/ml
CYP3A4 [4] = molecular target: CYP3A4 (Homo sapiens, UniProt P08684); assay: in vitro; settings: recombinant enzyme, Supersome
CYP3A4/5 = assay: in vitro; settings: human, microsomes, HLM
CYP2D6 [5] = assay: Inhibition of methadone N-demethylation; settings: human, microsomes, Inhibition of (R)- and (S)-EDDP formation, HLM with high CYP2D6 activity
CYP2D6 [6] = molecular target: CYP2D6 (Homo sapiens, UniProt P10635); assay: in vitro; settings: recombinant enzyme
[7] = Abundance from Immunquantitation
[8] = Abundance from Relative Activity Factor
[9] = % Inhibition of (R)-EDDP production
[10] = % Inhibition of (S)-EDDP production

Chain of CYP2D6 (Homo sapiens, UniProt P10635) (P10635 whole entry): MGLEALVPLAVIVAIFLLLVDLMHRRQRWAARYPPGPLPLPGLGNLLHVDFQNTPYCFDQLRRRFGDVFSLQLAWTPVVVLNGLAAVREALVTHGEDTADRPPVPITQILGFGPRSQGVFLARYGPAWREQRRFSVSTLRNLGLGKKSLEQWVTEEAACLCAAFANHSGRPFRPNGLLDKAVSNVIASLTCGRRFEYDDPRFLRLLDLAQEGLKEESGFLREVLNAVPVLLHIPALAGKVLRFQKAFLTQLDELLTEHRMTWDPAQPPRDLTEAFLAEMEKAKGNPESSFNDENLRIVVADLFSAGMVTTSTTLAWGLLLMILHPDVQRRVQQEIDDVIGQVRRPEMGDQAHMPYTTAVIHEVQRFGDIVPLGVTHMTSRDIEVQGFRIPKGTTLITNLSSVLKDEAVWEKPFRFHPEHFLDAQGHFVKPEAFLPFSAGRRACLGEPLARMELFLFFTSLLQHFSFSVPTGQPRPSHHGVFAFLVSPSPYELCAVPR
Chain of CYP3A4 (Homo sapiens, UniProt P08684) (P08684 whole entry): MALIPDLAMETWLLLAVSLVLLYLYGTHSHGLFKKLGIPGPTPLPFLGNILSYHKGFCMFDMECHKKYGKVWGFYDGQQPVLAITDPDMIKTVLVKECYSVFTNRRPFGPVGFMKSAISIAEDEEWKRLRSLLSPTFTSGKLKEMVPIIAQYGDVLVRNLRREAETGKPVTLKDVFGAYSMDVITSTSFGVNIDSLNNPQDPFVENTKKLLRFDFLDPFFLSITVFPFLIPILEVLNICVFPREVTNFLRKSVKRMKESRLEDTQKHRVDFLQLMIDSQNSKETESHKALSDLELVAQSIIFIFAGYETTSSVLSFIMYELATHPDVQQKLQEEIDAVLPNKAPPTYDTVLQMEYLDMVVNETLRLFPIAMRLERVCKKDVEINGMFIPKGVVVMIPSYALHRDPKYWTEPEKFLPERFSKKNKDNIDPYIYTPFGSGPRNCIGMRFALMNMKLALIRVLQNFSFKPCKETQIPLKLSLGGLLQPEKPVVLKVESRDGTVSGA

CC=C1N(C)[C@H](C)CC1(c1ccccc1)c1ccccc1 [(R)-EDDP]
Scaled contribution of CYP to formation of R- and S-EDDP (CYP2C8; [7]): 0.4%
Scaled contribution of CYP to formation of R- and S-EDDP (CYP2C8; [8]): 0.9%
Scaled contribution of CYP to formation of R- and S-EDDP (CYP2A6; [7]): 0.0%
Scaled contribution of CYP to formation of R- and S-EDDP (CYP2A6; [8]): 0.0%
Scaled contribution of CYP to formation of R- and S-EDDP (CYP2B6; [7]): 11.5%
Scaled contribution of CYP to formation of R- and S-EDDP (CYP2B6; [8]): 17.8%
Scaled contribution of CYP to formation of R- and S-EDDP (CYP2C9*1; [7]): 1.2%
Scaled contribution of CYP to formation of R- and S-EDDP (CYP2C9*1; [8]): 3.7%
Correlation (r) of EDDP formation with testosterone 6β-hydroxylation catalyzed by CYP3A [1]: 0.82
Scaled contribution of CYP to formation of R- and S-EDDP (CYP2D6*1; [7]): 1.0%
Scaled contribution of CYP to formation of R- and S-EDDP (CYP2D6*1; [8]): 0.5%
Scaled contribution of CYP to formation of R- and S-EDDP (CYP2C19; [7]): 14.4%
Scaled contribution of CYP to formation of R- and S-EDDP (CYP2C19; [8]): 5.8%
Scaled contribution of CYP to formation of R- and S-EDDP (CYP3A4 [2]; [7]): 70.7%
Scaled contribution of CYP to formation of R- and S-EDDP (CYP3A4 [2]; [8]): 71.3%
Scaled contribution of CYP to formation of R- and S-EDDP (CYP2C18): 0.7%
Scaled contribution of CYP to formation of R- and S-EDDP (CYP1A2; [7]): 0.0%
Scaled contribution of CYP to formation of R- and S-EDDP (CYP1A2; [8]): 0.0%

CC=C1N(C)[C@@H](C)CC1(c1ccccc1)c1ccccc1 [(S)-EDDP]
Scaled contribution of CYP to formation of R- and S-EDDP (CYP2C8; [7]): 0.2%
Scaled contribution of CYP to formation of R- and S-EDDP (CYP2C8; [8]): 0.4%
Scaled contribution of CYP to formation of R- and S-EDDP (CYP2A6; [7]): 0.0%
Scaled contribution of CYP to formation of R- and S-EDDP (CYP2A6; [8]): 0.0%
Scaled contribution of CYP to formation of R- and S-EDDP (CYP2B6; [7]): 18.5%
Scaled contribution of CYP to formation of R- and S-EDDP (CYP2B6; [8]): 26.7%
Scaled contribution of CYP to formation of R- and S-EDDP (CYP2C9*1; [7]): 0.4%
Scaled contribution of CYP to formation of R- and S-EDDP (CYP2C9*1; [8]): 1.1%
Correlation (r) of EDDP formation with testosterone 6β-hydroxylation catalyzed by CYP3A [1]: 0.54
Scaled contribution of CYP to formation of R- and S-EDDP (CYP2D6*1; [7]): 1.3%
Scaled contribution of CYP to formation of R- and S-EDDP (CYP2D6*1; [8]): 0.6%
Scaled contribution of CYP to formation of R- and S-EDDP (CYP2C19; [7]): 4.4%
Scaled contribution of CYP to formation of R- and S-EDDP (CYP2C19; [8]): 1.6%
Scaled contribution of CYP to formation of R- and S-EDDP (CYP3A4 [2]; [7]): 74.3%
Scaled contribution of CYP to formation of R- and S-EDDP (CYP3A4 [2]; [8]): 69.6%
Scaled contribution of CYP to formation of R- and S-EDDP (CYP2C18): 0.9%
Scaled contribution of CYP to formation of R- and S-EDDP (CYP1A2; [7]): 0.0%
Scaled contribution of CYP to formation of R- and S-EDDP (CYP1A2; [8]): 0.0%

CCC1=NC(C)CC1(c1ccccc1)c1ccccc1 (stereo not drawn) [EMDP, 2-ethyl-5-methyl-3,3-diphenylpyraline]
EMDP production from methadone [3]: no EMDP production was noted

NNC(=O)c1ccncc1 [Isoniazid, isoniazid]
inhibition at 15 min, 500 µM (CYP3A4 [4]; [9]): 96.9%
inhibition at 15 min, 500 µM (CYP3A4 [4]; [10]): 96.9%
inhibition at 15 min, 500 µM (CYP3A4/5; [9]): 70.8%
inhibition at 15 min, 500 µM (CYP3A4/5; [10]): 51.4%

Fc1ccc([C@@H]2CCNC[C@H]2COc2ccc3c(c2)OCO3)cc1 [Paroxetine, paroxetine]
inhibition at 30 min, 1 µM (CYP2D6 [5]; 1 µM): < 30%
inhibition at 30 min, 1 µM (CYP2D6 [6]; % Inhibition of (R)-EDDP production, Supersome): 9.9%
inhibition at 30 min, 1 µM (CYP2D6 [6]; % Inhibition of (S)-EDDP production, Supersome): 7.6%
inhibition at 30 min, 1 µM (CYP2D6 [6]; Inhibition of Supersome 2D6 activity): < 30%

C=C[C@H]1C[N@@]2CC[C@H]1C[C@@H]2[C@@H](O)c1ccnc2ccc(OC)cc12 [Quinidine, quinidine]
inhibition at 30 min, 10 µM (CYP2D6 [5]; 10 µM): < 30%

O=C(c1ccc(OCCN2CCCCC2)cc1)c1c(-c2ccc(O)cc2)sc2cc(O)ccc12 [Raloxifene, raloxifene]
inhibition at 15 min, 30 µM (CYP3A4 [4]; [9]): 96.8%
inhibition at 15 min, 30 µM (CYP3A4 [4]; [10]): 97.2%
